In patent publication US20260356819A1, “OXOISOINDOLINYL-SUBSTITUTED […] DERIVATIVE AND USE THEREOF” (GLUETACS THERAPEUTICS (SHANGHAI) CO., LTD., priority 2023, published 2026):

How the values were obtained:
Type in all cases: cell-based
Conditions in all cases: compounds at 50 nM and 500 nM
IKZF2 = biological target: T1, IKZF2 (Homo sapiens, UniProt Q96SW2+Q9UKS7); assay: Western blot degradation of IKZF2 in hPBMCs (24 h)
T1 construct: The supernatant was aspirated as the extracted total cell protein; endogenous in cells; host or cells: human peripheral blood mononuclear cells (hPBMCs)
Method in brief: (§1)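 hPBMCs (1×10^6 cells/mL) were treated with compound at 50 nM and 500 nM for 24 h, lysed in RIPA with protease inhibitors and analysed by SDS-PAGE/Western blot. Band grayscale, normalised to internal control, gave protein remaining (%); DC50 estimated versus DMSO bands.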

GSPT1 = biological target: T2, GSPT1 (Homo sapiens, UniProt P15170+Q96SW2); assay: Western blot degradation of GSPT1 in hPBMCs (24 h)
T2 construct: The supernatant was aspirated as the extracted total cell protein; endogenous in cells; host or cells: human peripheral blood mononuclear cells (hPBMCs)
Method in brief: as §1

CK1α = biological target: T3, CK1α (Homo sapiens, UniProt P48729+Q96SW2); assay: Western blot degradation of CK1α in hPBMCs (24 h)
T3 construct: The supernatant was aspirated as the extracted total cell protein; endogenous in cells; host or cells: human peripheral blood mononuclear cells (hPBMCs)
Method in brief: as §1

WEE1 = biological target: T4, WEE1 (Homo sapiens, UniProt P30291+Q96SW2); assay: Western blot degradation of WEE1 in hPBMCs (24 h)
T4 construct: The supernatant was aspirated as the extracted total cell protein; endogenous in cells; host or cells: human peripheral blood mononuclear cells (hPBMCs)
Method in brief: as §1

IKZF1 = biological target: T5, IKZF1 (Homo sapiens, UniProt Q13422+Q96SW2); assay: Western blot degradation of IKZF1 in hPBMCs (24 h)
T5 construct: The supernatant was aspirated as the extracted total cell protein; endogenous in cells; host or cells: human peripheral blood mononuclear cells (hPBMCs)
Method in brief: as §1

IKZF3 = biological target: T6, IKZF3 (Homo sapiens, UniProt Q96SW2+Q9UKT9); assay: Western blot degradation of IKZF3 in hPBMCs (24 h)
T6 construct: The supernatant was aspirated as the extracted total cell protein; endogenous in cells; host or cells: human peripheral blood mononuclear cells (hPBMCs)
Method in brief: as §1

T2 sequence (P15170 whole entry): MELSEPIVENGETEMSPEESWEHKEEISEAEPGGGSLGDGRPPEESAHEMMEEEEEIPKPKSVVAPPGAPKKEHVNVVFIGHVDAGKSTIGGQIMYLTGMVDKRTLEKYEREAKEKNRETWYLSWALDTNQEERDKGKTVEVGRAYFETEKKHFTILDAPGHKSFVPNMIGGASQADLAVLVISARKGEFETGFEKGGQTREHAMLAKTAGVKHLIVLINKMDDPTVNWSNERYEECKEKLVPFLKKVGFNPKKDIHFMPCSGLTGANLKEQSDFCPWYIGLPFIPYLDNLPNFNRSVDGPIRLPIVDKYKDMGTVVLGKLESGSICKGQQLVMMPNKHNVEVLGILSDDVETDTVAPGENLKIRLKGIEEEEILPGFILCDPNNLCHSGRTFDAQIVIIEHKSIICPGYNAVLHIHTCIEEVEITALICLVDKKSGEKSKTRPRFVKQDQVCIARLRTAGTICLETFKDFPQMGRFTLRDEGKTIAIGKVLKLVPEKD
T2 sequence (Q96SW2 whole entry): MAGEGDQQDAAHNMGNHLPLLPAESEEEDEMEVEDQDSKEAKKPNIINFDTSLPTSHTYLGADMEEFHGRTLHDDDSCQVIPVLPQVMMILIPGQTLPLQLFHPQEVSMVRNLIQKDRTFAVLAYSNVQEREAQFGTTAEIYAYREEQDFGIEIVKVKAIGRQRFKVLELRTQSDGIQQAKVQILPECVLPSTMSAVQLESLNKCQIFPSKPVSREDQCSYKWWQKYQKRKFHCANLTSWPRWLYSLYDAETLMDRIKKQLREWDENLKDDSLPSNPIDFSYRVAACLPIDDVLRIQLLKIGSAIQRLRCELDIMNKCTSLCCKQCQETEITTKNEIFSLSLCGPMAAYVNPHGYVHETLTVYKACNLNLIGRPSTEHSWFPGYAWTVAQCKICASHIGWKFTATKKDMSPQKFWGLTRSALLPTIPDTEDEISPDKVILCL
T2 sequence (Q16531 whole entry partner): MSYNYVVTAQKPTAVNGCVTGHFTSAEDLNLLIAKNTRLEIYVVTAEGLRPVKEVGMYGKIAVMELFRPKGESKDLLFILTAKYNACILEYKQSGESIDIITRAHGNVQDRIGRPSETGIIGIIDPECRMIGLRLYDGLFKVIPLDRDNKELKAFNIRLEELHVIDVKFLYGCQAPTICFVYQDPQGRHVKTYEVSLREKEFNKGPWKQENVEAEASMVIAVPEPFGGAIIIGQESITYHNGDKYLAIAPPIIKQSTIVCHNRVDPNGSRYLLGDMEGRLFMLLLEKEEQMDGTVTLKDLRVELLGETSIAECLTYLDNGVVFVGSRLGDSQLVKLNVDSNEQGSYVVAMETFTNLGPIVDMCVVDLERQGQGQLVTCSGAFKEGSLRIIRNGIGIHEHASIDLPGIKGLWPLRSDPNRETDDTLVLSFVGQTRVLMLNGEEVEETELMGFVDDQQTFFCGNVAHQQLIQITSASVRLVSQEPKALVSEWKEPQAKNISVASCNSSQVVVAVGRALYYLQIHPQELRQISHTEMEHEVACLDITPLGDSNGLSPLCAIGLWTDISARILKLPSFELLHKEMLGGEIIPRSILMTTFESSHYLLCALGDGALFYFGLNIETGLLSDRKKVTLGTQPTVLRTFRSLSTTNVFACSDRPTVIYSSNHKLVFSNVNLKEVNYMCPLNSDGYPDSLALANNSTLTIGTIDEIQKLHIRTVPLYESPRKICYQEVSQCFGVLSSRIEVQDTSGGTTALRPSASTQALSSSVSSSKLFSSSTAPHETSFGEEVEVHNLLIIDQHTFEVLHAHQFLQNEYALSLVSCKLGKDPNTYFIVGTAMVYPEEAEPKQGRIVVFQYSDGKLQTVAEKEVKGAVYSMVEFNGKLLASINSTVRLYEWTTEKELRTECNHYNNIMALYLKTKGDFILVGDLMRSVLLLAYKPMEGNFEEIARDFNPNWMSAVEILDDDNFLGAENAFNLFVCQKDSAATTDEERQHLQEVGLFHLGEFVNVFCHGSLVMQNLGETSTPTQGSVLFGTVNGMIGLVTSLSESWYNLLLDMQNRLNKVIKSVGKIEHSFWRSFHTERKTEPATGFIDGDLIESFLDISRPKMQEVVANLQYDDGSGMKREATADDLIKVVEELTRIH
T4 sequence (P30291 whole entry): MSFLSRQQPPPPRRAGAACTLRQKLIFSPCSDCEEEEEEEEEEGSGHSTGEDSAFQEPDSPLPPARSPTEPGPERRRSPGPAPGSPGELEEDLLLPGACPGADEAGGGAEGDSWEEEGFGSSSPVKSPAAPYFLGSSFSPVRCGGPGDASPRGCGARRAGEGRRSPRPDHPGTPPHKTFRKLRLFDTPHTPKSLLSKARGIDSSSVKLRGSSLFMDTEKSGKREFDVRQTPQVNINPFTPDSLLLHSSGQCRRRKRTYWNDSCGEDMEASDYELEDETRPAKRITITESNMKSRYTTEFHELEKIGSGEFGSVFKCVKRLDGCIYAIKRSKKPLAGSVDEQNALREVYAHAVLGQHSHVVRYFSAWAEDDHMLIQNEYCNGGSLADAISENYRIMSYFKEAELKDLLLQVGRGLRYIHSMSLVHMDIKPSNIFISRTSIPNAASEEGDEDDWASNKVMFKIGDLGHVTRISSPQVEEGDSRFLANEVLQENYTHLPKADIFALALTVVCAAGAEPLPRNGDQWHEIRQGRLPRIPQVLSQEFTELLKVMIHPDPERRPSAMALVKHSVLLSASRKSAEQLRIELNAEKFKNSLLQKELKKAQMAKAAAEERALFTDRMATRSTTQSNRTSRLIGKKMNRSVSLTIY
T4 sequence (Q96SW2 whole entry): as the sequence (Q96SW2 whole entry) above
T4 sequence (Q16531 whole entry partner): as the sequence (Q16531 whole entry partner) above
T6 sequence (Q9UKT9 whole entry): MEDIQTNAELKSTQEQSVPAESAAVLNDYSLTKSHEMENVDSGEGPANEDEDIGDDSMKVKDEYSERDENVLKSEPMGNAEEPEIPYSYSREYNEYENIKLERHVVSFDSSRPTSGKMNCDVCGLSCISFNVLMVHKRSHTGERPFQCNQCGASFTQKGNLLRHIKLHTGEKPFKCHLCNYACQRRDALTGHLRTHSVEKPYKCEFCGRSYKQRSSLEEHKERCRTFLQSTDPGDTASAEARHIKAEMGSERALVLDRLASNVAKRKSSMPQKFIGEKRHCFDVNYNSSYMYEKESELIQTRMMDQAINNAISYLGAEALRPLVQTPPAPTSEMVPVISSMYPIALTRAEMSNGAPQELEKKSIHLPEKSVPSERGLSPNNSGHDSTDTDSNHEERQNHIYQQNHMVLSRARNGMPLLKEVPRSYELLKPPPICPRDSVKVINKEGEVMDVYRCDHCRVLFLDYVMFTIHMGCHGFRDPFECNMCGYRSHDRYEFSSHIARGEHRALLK
T6 sequence (Q96SW2 whole entry): as the sequence (Q96SW2 whole entry) above
T6 sequence (Q16531 whole entry partner): as the sequence (Q16531 whole entry partner) above
T1 sequence (Q9UKS7 whole entry): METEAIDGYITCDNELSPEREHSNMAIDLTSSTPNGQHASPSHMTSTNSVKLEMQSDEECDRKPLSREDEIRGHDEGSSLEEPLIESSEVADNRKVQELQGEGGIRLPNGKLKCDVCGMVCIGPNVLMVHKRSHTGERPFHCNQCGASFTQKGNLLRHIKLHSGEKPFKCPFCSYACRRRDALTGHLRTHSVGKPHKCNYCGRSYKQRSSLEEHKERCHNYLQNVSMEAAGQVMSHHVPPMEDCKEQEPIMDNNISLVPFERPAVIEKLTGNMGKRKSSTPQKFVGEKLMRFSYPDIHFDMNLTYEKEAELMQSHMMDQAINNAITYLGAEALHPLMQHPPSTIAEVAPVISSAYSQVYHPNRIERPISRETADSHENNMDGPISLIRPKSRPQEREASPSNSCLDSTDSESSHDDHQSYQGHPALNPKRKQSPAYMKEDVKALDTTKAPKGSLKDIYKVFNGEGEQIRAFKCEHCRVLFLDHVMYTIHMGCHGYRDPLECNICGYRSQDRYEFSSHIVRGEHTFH
T1 sequence (Q96SW2 whole entry): as the sequence (Q96SW2 whole entry) above
T1 sequence (Q16531 whole entry partner): as the sequence (Q16531 whole entry partner) above
T3 sequence (P48729 whole entry): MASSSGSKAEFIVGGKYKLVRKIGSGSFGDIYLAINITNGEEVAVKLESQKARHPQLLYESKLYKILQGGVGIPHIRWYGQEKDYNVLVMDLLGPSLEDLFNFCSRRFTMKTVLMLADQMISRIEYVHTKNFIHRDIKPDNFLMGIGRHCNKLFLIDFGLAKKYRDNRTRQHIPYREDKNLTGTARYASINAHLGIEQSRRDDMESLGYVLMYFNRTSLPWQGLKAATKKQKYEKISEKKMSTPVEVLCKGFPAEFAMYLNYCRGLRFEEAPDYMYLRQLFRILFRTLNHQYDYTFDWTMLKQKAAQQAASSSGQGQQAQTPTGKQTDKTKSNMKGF
T3 sequence (Q96SW2 whole entry): as the sequence (Q96SW2 whole entry) above
T3 sequence (Q16531 whole entry partner): as the sequence (Q16531 whole entry partner) above

| SMILES | IKZF2 substrate protein remaining % (IKZF2) | GSPT1 substrate protein remaining % (GSPT1) | CK1α substrate protein remaining % (CK1α) | WEE1 substrate protein remaining % (WEE1) | IKZF1 substrate protein remaining % (IKZF1) | IKZF3 substrate protein remaining % (IKZF3) |
| --- | --- | --- | --- | --- | --- | --- |
| O=C1CCN(N2C(=O)c3ccc(CN4CCC(c5n[nH]c6cc(F)ccc56)CC4)cc3C2=O)C(=O)N1 [GT-07530, 2-(2,4-dioxotetrahydropyrimidin-1(2H)-yl)-5-((4-(6-fluoro-1H-indazol-3-yl)piperidin-1-yl)methyl)isoindoline-1,3-dione] | B (80%< substrate protein remaining % ≤100%) | A (0% ≤ substrate protein remaining % ≤80%) | A (0% ≤ substrate protein remaining % ≤80%) | A (0% ≤ substrate protein remaining % ≤80%) | B (80%< substrate protein remaining % ≤100%) | B (80%< substrate protein remaining % ≤100%) |
| Cc1nc(C2CCN(Cc3ccc4c(c3)CN(N3CCC(=O)NC3=O)C4=O)CC2)c2ccsc2n1 [GT-08088, 1-(5-((4-(2-methylthieno[2,3-d]pyrimidin-4-yl)piperidin-1-yl)methyl)-1-oxoisoindolin-2-yl)dihydropyrimidine-2,4(1H,3H)-dione] | B (80%< substrate protein remaining % ≤100%) | A (0% ≤ substrate protein remaining % ≤80%) | A (0% ≤ substrate protein remaining % ≤80%) | A (0% ≤ substrate protein remaining % ≤80%) | B (80%< substrate protein remaining % ≤100%) | B (80%< substrate protein remaining % ≤100%) |
| O=C1CCN(N2C(=O)c3ccc(CN4CCN(c5nc(Cl)nc6ccsc56)CC4)cc3C2=O)C(=O)N1 [GT-08453, 5-((4-(2-chlorothieno[3,2-d]pyrimidin-4-yl)piperazin-1-yl)methyl)-2-(2,4-dioxotetrahydropyrimidin-1(2H)-yl)isoindoline-1,3-dione] | B (80%< substrate protein remaining % ≤100%) | A (0% ≤ substrate protein remaining % ≤80%) | A (0% ≤ substrate protein remaining % ≤80%) | B (80%< substrate protein remaining % ≤100%) | A (0% ≤ substrate protein remaining % ≤80%) | A (0% ≤ substrate protein remaining % ≤80%) |
| COc1ccc(N2CCN(Cc3ccc4c(c3)CN(N3CCC(=O)NC3=O)C4=O)CC2)cc1 [GT-06767, 1-(5-((4-(4-methoxyphenyl)piperazin-1-yl)methyl)-1-oxoisoindolin-2-yl)dihydropyrimidine-2,4(1H,3H)-dione] | A (0% ≤ substrate protein remaining % ≤80%) | A (0% ≤ substrate protein remaining % ≤80%) | A (0% ≤ substrate protein remaining % ≤80%) | A (0% ≤ substrate protein remaining % ≤80%) | A (0% ≤ substrate protein remaining % ≤80%) | A (0% ≤ substrate protein remaining % ≤80%) |
| Cc1nc(C2CCN(Cc3ccc4c(c3)C(=O)N(N3CCC(=O)NC3=O)C4=O)CC2)c2c3c(sc2n1)CCCC3 [GT-08111, 2-(2,4-dioxotetrahydropyrimidin-1(2H)-yl)-5-((4-(2-methyl-5,6,7,8-tetrahydrobenzo[4,5]thieno[2,3-d]pyrimidin-4-yl)piperidin-1-yl)methyl)isoindoline-1,3-dione] | B (80%< substrate protein remaining % ≤100%) | A (0% ≤ substrate protein remaining % ≤80%) | A (0% ≤ substrate protein remaining % ≤80%) | B (80%< substrate protein remaining % ≤100%) | B (80%< substrate protein remaining % ≤100%) | B (80%< substrate protein remaining % ≤100%) |
